Data set [1] concerns D-serine. Put plainly: Pharmacokinetics profile of D-serine in rat model, blood plasma. To be noted: for ln(C) / Conc / AUC: D-serine in rat plasma; for Conc: doses per Table 1. As for the experimental part:
(§1) To assess and compare the pharmacokinetics profile of D-serine in rat model.
(§2) Six groups were divided into 4 sets of 3 rats each/subset for bleeding and organ (brain) collection—Total 72 rats
Plasma was separated using refrigerated centrifuge & stored in −80° C. before analysis. Blood was collected at time point 0, 2, 6 and 10 hrs at least from 3 rats/group/time point.
(§3) Supernatant was filtered with 0.2 micron amicon syringe filter (Millipore, Hessen, Germany), then directly transferred into auto sampler vials
(§4) An Accela™ ultra-high performance liquid chromatography (UHPLC) system (Thermo Fisher, Waltham, USA), coupled online via heated electrospray ionization source (HESI) with a Q-Exactive-Orbitrap mass spectrometer (Thermo Fisher), was employed for global metabolomics profiling with 1 μL sample injection volume. The metabolites were profiled using a C18 Hypersil Gold column (1.9 μm, 2.1×150 mm, Thermo).
(§5) The temperature of column oven was set at 35° C. and the sample manager was maintained at 4° C. The eluents acetonitrile and water containing 0.1% formic acid were employed in the electrospray ionization-positive (ESI+) mode.
(§6) The area under the plasma concentration time curve (AUC) value was calculated to the last quantifiable sample (AUClast) by using the log-linear trapezoidal rule.

The test system of data set [2] is D-serine. Briefly: Pharmacokinetics profile of D-serine in rat model, brain tissue sample. As to conditions: for ln(C) / Conc / AUC: D-serine in rat brain tissue; for Conc: doses per Table 1. As to the method:
as §1, §2
Organ (Brain) collection: Rats were sacrificed each time point (3 rats/group/time point) by decapitation at 0, 2, 6 or 10 hr post dose. Brain was removed and cerebellum dissected on ice. Tissue samples were frozen on dry ice and stored at −80° C. until analysis.
as §3, §4, §5, §6

In a further data set the target is T1, human SR (Homo sapiens, UniProt Q9GZT4).
T1 sequence (Q9GZT4 1-340): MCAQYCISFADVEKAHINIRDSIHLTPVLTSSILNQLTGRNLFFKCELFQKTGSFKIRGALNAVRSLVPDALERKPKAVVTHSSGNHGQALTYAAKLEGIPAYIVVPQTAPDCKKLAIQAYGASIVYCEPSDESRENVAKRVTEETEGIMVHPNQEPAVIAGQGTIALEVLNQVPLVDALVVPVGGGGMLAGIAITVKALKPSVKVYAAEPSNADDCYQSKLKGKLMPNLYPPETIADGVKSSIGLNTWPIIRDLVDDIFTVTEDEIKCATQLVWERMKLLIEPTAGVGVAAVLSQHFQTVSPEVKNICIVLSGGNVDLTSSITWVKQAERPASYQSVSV
To be noted: cited from earlier work.

Setting [3] is: D-serine, rat plasma, non-compartmental analysis.
The mark [4] stands for this setting: D-serine, rat brain tissue, non-compartmental analysis.

Read-outs that look alike come from different tables or passages of the source.

The values below come from US11376277B2, “Synergistic medicinal compositions for treating dysfunctional D-serine signaling” (CELAGENEX RESEARCH (INDIA) PVT. LTD., priority 2020, dated 2022).

For orientation: Cmax means the maximum level reached in the sampled fluid or tissue. The Tmax is the time from dosing to the highest level.

For the compound “magnesium 2-acetamidoethanesulfonate dihydrate [Test I]”, the “ln(C)” value in the data set on D-serine [1] (Time 0 (pre-dose)) was −0.3877; with D-serine [1] (Time 2 hr), −0.4986; with D-serine [1] (Time 6 hr), −0.6686; in the data set with D-serine [1] (Time 10 hr), −0.85; with D-serine [2] (Time 0 (pre-dose)), −0.8701; with D-serine [2] (Time 2 hr) it was −0.981. Besides, the “ln(C)” value is recorded as −1.151 in the data set with D-serine [2] (Time 6 hr) and −1.332 in the data set with D-serine [2] (Time 10 hr). The Conc in the data set with D-serine [1] (Time 0 (pre-dose)) was determined as 0.6786; with D-serine [1] (Time 2 hr), 0.6074; in the data set with D-serine [1] (Time 6 hr) it was 0.5124; in the data set on D-serine [1] (Time 10 hr), 0.4274; in the data set on D-serine [2] (Time 0 (pre-dose)), 0.4189; with D-serine [2] (Time 2 hr), 0.3749. Further, the values for the Conc in the data set on D-serine [2] (Time 6 hr) and in the data set on D-serine [2] (Time 10 hr) were 0.3163 and 0.2638, respectively. For the same compound, the AUC came out at 1.286 in the data set with D-serine [1] (cumulative to Time 2 hr), 3.5256 with D-serine [1] (cumulative to Time 6 hr), 0.7938 with D-serine [2] (cumulative to Time 2 hr) and 2.176 in the data set on D-serine [2] (cumulative to Time 6 hr). Also, the “AUC 0-inf_obs” value in the data set on D-serine [1] (setting [3]) was 11130 ng·h/mL; in the data set with D-serine [2] (setting [4]) it was 7342 ng·h/mL. The “AUMC 0-inf_obs” value in the data set on D-serine [1] (setting [3]) came out at 343.2 μg/ml*h^2; in the data set on D-serine [2] (setting [4]), 211.9 μg/ml*h^2. For the same compound, the Cl/F_obs in the data set with D-serine [1] (setting [3]) was 2.39 (mg)/(μg/ml)/h; with D-serine [2] (setting [4]) it was 3.872 (mg)/(μg/ml)/h. The Cmax came to 678.6 ng/mL with D-serine [1] (setting [3]) and 418.9 ng/mL with D-serine [2] (setting [4]). Also, the “MRT 0-inf_obs” value in the data set with D-serine [1] (setting [3]) and in the data set with D-serine [2] (setting [4]) was 22.68 h throughout. The Tlag with D-serine [1] (setting [3]) and in the data set with D-serine [2] (setting [4]) was 0 h each time. Further, the Tmax with D-serine [1] (setting [3]) and in the data set on D-serine [2] (setting [4]) was 0 h in each case. The Vz/F_obs was 54.4 (mg)/(μg/ml) in the data set on D-serine [1] (setting [3]) and 88.12 (mg)/(μg/ml) in the data set on D-serine [2] (setting [4]). Further, the t1/2 in the data set on D-serine [1] (setting [3]) and in the data set with D-serine [2] (setting [4]) was 15.78 h throughout. The “AUC 0-t” value turned out to be 3405.2 ng·h/mL in the data set with D-serine [1] (D-serine, rat plasma, non-compartmental analysis, 0-10 hr) and 2137 ng·h/mL in the data set on D-serine [2] (D-serine, rat brain tissue, non-compartmental analysis, 0-10 hr). In addition, the Lambda_z in the data set on D-serine [1] (D-serine, rat plasma, non-compartmental analysis, extravascular input) was found to be 0.04393 L/h; with D-serine [2] (D-serine, rat brain tissue, non-compartmental analysis, extravascular input), 0.04393 L/h. Besides, the “AUC values of D-serine” value with D-serine [1] (rat plasma, G4 36.17 mg/kg, G5 31.01 mg/kg) is “increased”; in the data set with D-serine [2] (rat brain tissue samples, G4 36.17 mg/kg, G5 31.01 mg/kg), “increased”.

For the compound `[Ca+2]` [Ca′], the “activity of the enzyme relative to purified human SR without divalent cation supplementation” value at human SR (@1 mM) was 134%.

For the compound `[Mg+2]` [Mg^2+], the “activity of the enzyme relative to purified human SR without divalent cation supplementation” value on human SR (@10 μM) is 112%.

In the case of `N[C@@H](COS(=O)(=O)O)C(=O)O` [L-Serine 0-sulfate, L-Serine O-sulfate, reference compound], the D-Serine over control result in the data set with D-serine [1] (rat, treated with serine racemase inhibitor, 1.86 mg/kg) is recorded as “substantially reduced”.

In the case of `[Mn+2]` [Mn^2+], at human SR (@10 μM), the “activity of the enzyme relative to purified human SR without divalent cation supplementation” value is reported as 153%.
